Measured values from PMC3757248, “Antiestrogen-binding site ligands induce autophagy in myeloma cells that proceeds through alteration of cholesterol metabolism” (Oncotarget, 2013).
Like-named read-outs stand apart in the source and are kept apart here.

Columns and labels:
RPMI 8226 and LP-1 cells = assay: Cell viability, MTT assay; assay type: cell-based, human; details: for sensitivity to dexamethasone (MTT assay): 10 μM dexamethasone 24 h, RU 39411 10 μM for 2 h before; for cell death (viable cells, MTT assay): 1 μM LY 294002, 10 nM everolimus, 10 μM RU 39411, 40 μM PBPE
Procedure: RPMI 8226 were obtained from R Bataille (CLCC, Nantes, France) and LP-1 cells from D Bouscary (Institut Cochin, Paris, France). At their arrival, the identity of cells was checked by karyotyping and surface markers expression; cells were then amplified and frozen. HMCLs were maintained in RPMI 1640 medium (Lonza, Basel, Switzerland) supplemented with 2 mM L-glutamine (Lonza) and 10% FCS (fetal calf serum) (PAA Laboratories, Velizy-Villacoublay, France). In experiments with AEs, cells were cultured in phenol red-free medium plus FCS. AEs were dissolved in ethanol (EtOH) to obtain 10 mM stock solution and then diluted into medium immediately before use. For controls, vehicle was added at the same final concentration. Cell viability was determined using CellTiter 96® AQueous One Solution (MTT [([3]-([4],[5])-dimethylthiazol-[2]-yl)-[2],[5]-diphenyltetrazolium bromide] assay, Promega, Charbonnières, France) according to the supplier's instructions.

LP-1 cells [1] = assay: Electron microscopy for MLBs, AVs and UVs; assay type: cell-based, human; details: 48 h, 10 μM drug (PBPE 40 μM)
RPMI 8226 cells [2] = assay: Sterols accumulated in cells, HPLC and GC/MS; assay type: cell-based, human; details: RPMI 8226, 48 h incubation
Procedure: (§1) The organic layer was reduced to dryness under a flux of argon and the residue was resuspended in ethanol. Sterols were analyzed by liquid chromatography and gas-liquid chromatography as described before. Neutral lipids and sphingomyelin analyses were done according to previously published procedures.

LP-1 cells [3] = assay: Sterols accumulated in cells, HPLC and GC/MS; assay type: cell-based, human; details: LP1, 48 h incubation
Procedure: as §1

AEBS [4] = target: T1, AEBS (Homo sapiens, UniProt Q15125+Q9UBM7); assay: Binding to the AEBS in HMCLs; parameters: endogenous in cells; host or cells: RPMI 8226 and LP-1 human multiple myeloma cell lines
RPMI 8226 cells [5] = assay: Presence of 5,6-EC in cells by GC/MS; assay type: cell-based, human; details: 48 h, 10 μM drug (PBPE 40 μM)
Procedure: as §1

LP-1 cells [6] = assay: Presence of 5,6-EC in cells by GC/MS; assay type: cell-based, human; details: 48 h, 10 μM drug (PBPE 40 μM)
Procedure: as §1

RPMI 8226 cells [7] = assay: Electron microscopy for MLBs, AVs and UVs; assay type: cell-based, human; details: 48 h, 10 μM drug (PBPE 40 μM)
ChEH [8] = target: T2, ChEH (Homo sapiens, UniProt Q15125+Q9UBM7); assay: ChEH activity in HMCLs (TLC); assay type: cell-based; parameters: endogenous in cells; host or cells: RPMI 8226 and LP-1 human multiple myeloma cell lines; details: OHT, Tam, RU 58668 10 μM, PBPE 40 μM
Source text: (§2) Cells were then pelleted and extracted with chloroform/methanol (2/1). The organic layer was reduced to dryness under a flux of argon and the residue was resuspended in EtOH. Samples were applied to thin layer chromatography (TLC) plates and developed using ethyl acetate as previously described. The radioactive metabolites were visualized by autoradiography using Kodak Biomax MS films.

HMCLs = assay: Free sterol accumulation in HMCLs; assay type: cell-based, human
Procedure: as §1

RPMI 8226 = system: RPMI 8226; parameters: method as in earlier work; details: cited from earlier work
OPM-2 = system: OPM-2; parameters: method as in earlier work; details: cited from earlier work
NCI-H929 = system: NCI-H929; parameters: method as in earlier work; details: cited from earlier work
LP-1 = system: LP-1; parameters: method as in earlier work; details: cited from earlier work
ChEH [9] = target: T2, ChEH; assay: ChEH activity measured on intact cells; assay type: cell-based; parameters: endogenous in cells; host or cells: LP-1 human multiple myeloma cell lines; details: LP-1 intact cells, [14C]-5,6-EC 0.6 μM, drugs 1 nM to 10 μM over 24 h; read-out: ChEH IC50
Source text: as §2

ChEH [10] = target: T2, ChEH; assay: ChEH activity measured on intact cells; assay type: cell-based; parameters: endogenous in cells; host or cells: RPMI 8226 human multiple myeloma cell lines; details: RPMI 8226 intact cells, [14C]-5,6-EC 0.6 μM, drugs 1 nM to 10 μM over 24 h; read-out: ChEH IC50
Source text: as §2

AEBS [11] = target: T1, AEBS; assay: Binding to the AEBS in LP1; parameters: endogenous in cells; host or cells: LP-1 human multiple myeloma cell lines
AEBS [12] = target: T1, AEBS; assay: Binding to the AEBS in RPMI 8226
[13] = RPMI 8226, presence of 500 μM Vit E

T1 sequence (Q15125 whole entry): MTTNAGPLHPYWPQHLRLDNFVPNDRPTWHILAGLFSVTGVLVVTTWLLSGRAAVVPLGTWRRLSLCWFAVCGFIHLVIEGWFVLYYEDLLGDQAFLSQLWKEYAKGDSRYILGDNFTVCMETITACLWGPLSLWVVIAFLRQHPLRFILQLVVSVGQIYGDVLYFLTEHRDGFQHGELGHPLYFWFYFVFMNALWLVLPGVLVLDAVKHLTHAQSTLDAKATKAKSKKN
T1 sequence (Q9UBM7 whole entry): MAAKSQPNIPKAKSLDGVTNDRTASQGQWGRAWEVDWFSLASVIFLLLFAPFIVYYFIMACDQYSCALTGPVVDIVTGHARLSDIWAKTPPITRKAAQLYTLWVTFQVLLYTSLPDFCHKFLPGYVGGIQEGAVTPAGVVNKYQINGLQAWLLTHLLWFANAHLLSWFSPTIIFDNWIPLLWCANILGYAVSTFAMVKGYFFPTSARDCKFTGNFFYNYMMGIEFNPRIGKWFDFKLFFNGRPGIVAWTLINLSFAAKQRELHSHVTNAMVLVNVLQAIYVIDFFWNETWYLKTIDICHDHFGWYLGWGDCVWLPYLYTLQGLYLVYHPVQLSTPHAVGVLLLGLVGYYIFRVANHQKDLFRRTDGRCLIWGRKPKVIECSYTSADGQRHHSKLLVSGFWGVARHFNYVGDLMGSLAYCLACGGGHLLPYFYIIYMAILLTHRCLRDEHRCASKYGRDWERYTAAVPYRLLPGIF
T2 sequence (Q15125 whole entry): as the sequence (Q15125 whole entry) above
T2 sequence (Q9UBM7 whole entry): as the sequence (Q9UBM7 whole entry) above

For C[C@@H]1C[C@H]2[C@@H]3CCC4=CC(=O)C=C[C@]4(C)[C@@]3(F)[C@@H](O)C[C@]2(C)[C@@]1(O)C(=O)CO [dexamethasone], the “sensitivity to dexamethasone (MTT assay)” value (RPMI 8226 and LP-1 cells) was “resistant”.
For CO[C@H]1C[C@@H]2CC[C@@H](C)[C@@](O)(O2)C(=O)C(=O)N2CCCC[C@H]2C(=O)O[C@H]([C@H](C)C[C@@H]2CC[C@@H](OCCO)[C@H](OC)C2)CC(=O)[C@H](C)/C=C(\C)[C@@H](O)[C@@H](OC)C(=O)[C@H](C)C[C@H](C)/C=C/C=C/C=C/1C [everolimus], the “cell death (viable cells, MTT assay)” value (RPMI 8226 and LP-1 cells) was “induced cell death”.
For CC/C(=C(\c1ccccc1)c1ccc(OCCN(C)C)cc1)c1ccccc1 [Tam, Tamoxifen], the AV (LP-1 cells [1]; LP-1, absence of Vit E) was “+ + (The sign + means that 80 % cells were positive and contained at least 5 vesicles)”, the MLB (LP-1 cells [1]; LP-1, absence of Vit E) was “+ + (The sign + means that 80 % cells were positive and contained at least 5 vesicles)” and the UV (LP-1 cells [1]; LP-1, absence of Vit E) was “+ (The sign + means that 80 % cells were positive and contained at least 5 vesicles)”. For the same compound, the AV (LP-1 cells [1]; LP-1, presence of 500 μM Vit E) was “+ + (The sign + means that 80 % cells were positive and contained at least 5 vesicles)”, the MLB (LP-1 cells [1]; LP-1, presence of 500 μM Vit E) was “+ + (The sign + means that 80 % cells were positive and contained at least 5 vesicles)” and the UV (LP-1 cells [1]; LP-1, presence of 500 μM Vit E) was “− (otherwise they were considered as negative (-))”. The Desmosterol (RPMI 8226 cells [2]) was 0.2 percent by the weight of total sterol, the Zymostenol (RPMI 8226 cells [2]) was 35.9 percent by the weight of total sterol and the Desmosterol (LP-1 cells [3]) was 0.2 percent by the weight of total sterol. The Zymostenol (LP-1 cells [3]) was 38.2 percent by the weight of total sterol, the “affinity for the AEBS” value (AEBS [4]) was “high affinity” and the “5,6-EC” value (RPMI 8226 cells [5]; RPMI 8226, absence of Vit E) was “+”. For the same compound, the “5,6-EC” value (RPMI 8226 cells [5]; [13]) was “−”, the “5,6-EC” value (LP-1 cells [6]; LP-1, absence of Vit E) was “+” and the “5,6-EC” value (LP-1 cells [6]; LP-1, presence of 500 μM Vit E) was “−”. For the same compound, the AV (RPMI 8226 cells [7]; RPMI 8226, absence of Vit E) was “+ + (The sign + means that 80 % cells were positive and contained at least 5 vesicles)”, the MLB (RPMI 8226 cells [7]; RPMI 8226, absence of Vit E) was “+ + (The sign + means that 80 % cells were positive and contained at least 5 vesicles)” and the UV (RPMI 8226 cells [7]; RPMI 8226, absence of Vit E) was “+ (The sign + means that 80 % cells were positive and contained at least 5 vesicles)”. For the same compound, the AV (RPMI 8226 cells [7]; [13]) was “+ + (The sign + means that 80 % cells were positive and contained at least 5 vesicles)”, the MLB (RPMI 8226 cells [7]; [13]) was “+ + (The sign + means that 80 % cells were positive and contained at least 5 vesicles)” and the UV (RPMI 8226 cells [7]; [13]) was “− (otherwise they were considered as negative (-))”. The “ChEH activity, conversion of 5,6-EC into CT by TLC” value (ChEH [8]) was “ChEH activity was inhibited” and the free sterol accumulated (HMCLs) was “accumulation zymostenol”.
For C[C@]12CC[C@@H]3c4ccc(O)cc4C[C@@H](CCCCCCCCC[S+]([O-])CCCC(F)(F)C(F)(F)F)[C@H]3[C@@H]1CC[C@@H]2O (stereo partly shown) [Fulvestrant], the “SERM and SERDs effects on MM cell lines” value (RPMI 8226) is given as “Apoptosis”, the “SERM and SERDs effects on MM cell lines” value (OPM-2) is given as “G1-arrest” and the “SERM and SERDs effects on MM cell lines” value (NCI-H929) is given as “Apoptosis”. The “SERM and SERDs effects on MM cell lines” value (LP-1) was “G1-arrest”.
With CN(C)CCOc1ccc([C@H]2C[C@]3(C)[C@@H](O)CC[C@H]3[C@@H]3CCc4cc(O)ccc4[C@H]32)cc1 [RU 39411, 11β-(4-(2-(dimethylamino)-ethoxy)-phenyl)estra-1,3,5(10)-triene-3,17β-diol] the AV (LP-1 cells [1]; LP-1, absence of Vit E) was “+ + (The sign + means that 80 % cells were positive and contained at least 5 vesicles)”, the MLB (LP-1 cells [1]; LP-1, absence of Vit E) was “+ + (The sign + means that 80 % cells were positive and contained at least 5 vesicles)” and the UV (LP-1 cells [1]; LP-1, absence of Vit E) was “+ (The sign + means that 80 % cells were positive and contained at least 5 vesicles)”. For the same compound, the AV (LP-1 cells [1]; LP-1, presence of 500 μM Vit E) was “+ + (The sign + means that 80 % cells were positive and contained at least 5 vesicles)”, the MLB (LP-1 cells [1]; LP-1, presence of 500 μM Vit E) was “+ + (The sign + means that 80 % cells were positive and contained at least 5 vesicles)” and the UV (LP-1 cells [1]; LP-1, presence of 500 μM Vit E) was “− (otherwise they were considered as negative (-))”. The Desmosterol (RPMI 8226 cells [2]) was 41.5 percent by the weight of total sterol, the Zymostenol (RPMI 8226 cells [2]) was 1.8 percent by the weight of total sterol and the Desmosterol (LP-1 cells [3]) was 46.4 percent by the weight of total sterol. The Zymostenol (LP-1 cells [3]) was 1.7 percent by the weight of total sterol, the “affinity for the AEBS” value (AEBS [4]) was “high affinity” and the “5,6-EC” value (RPMI 8226 cells [5]; RPMI 8226, absence of Vit E) was “+”. For the same compound, the “5,6-EC” value (RPMI 8226 cells [5]; [13]) was “−”, the “5,6-EC” value (LP-1 cells [6]; LP-1, absence of Vit E) was “+” and the “5,6-EC” value (LP-1 cells [6]; LP-1, presence of 500 μM Vit E) was “−”. The AV (RPMI 8226 cells [7]; RPMI 8226, absence of Vit E) was “+ + (The sign + means that 80 % cells were positive and contained at least 5 vesicles)”, the MLB (RPMI 8226 cells [7]; RPMI 8226, absence of Vit E) was “+ + (The sign + means that 80 % cells were positive and contained at least 5 vesicles)” and the UV (RPMI 8226 cells [7]; RPMI 8226, absence of Vit E) was “+ (The sign + means that 80 % cells were positive and contained at least 5 vesicles)”. For the same compound, the AV (RPMI 8226 cells [7]; [13]) was “+ + (The sign + means that 80 % cells were positive and contained at least 5 vesicles)”, the MLB (RPMI 8226 cells [7]; [13]) was “+ + (The sign + means that 80 % cells were positive and contained at least 5 vesicles)” and the UV (RPMI 8226 cells [7]; [13]) was “− (otherwise they were considered as negative (-))”. It also gave an IC50 (ChEH [9]) of 727 ± 31 nM, an IC50 (ChEH [10]) of 632 ± 22 nM and a Ki (AEBS [11]) of 27.4 ± 3.1 nM. For the same compound, the Ki (AEBS [12]) was 29.4 ± 5.5 nM, the free sterol accumulated (HMCLs) was “accumulation of desmosterol” and the “cell death (viable cells, MTT assay)” value (RPMI 8226 and LP-1 cells) was “cell death that was strictly caspase-independent”. The “sensitivity to dexamethasone (MTT assay)” value (RPMI 8226 and LP-1 cells) was “restores the sensitivity”.
In the case of O=c1cc(N2CCOCC2)oc2c(-c3ccccc3)cccc12 [LY 294002], the “cell death (viable cells, MTT assay)” value (RPMI 8226 and LP-1 cells) is reported as “induced cell death”.
